Values quoted from earlier work, collected in patent US20100104547A1, “TOPICAL COMPOSITION FOR THE TREATMENT OF ALLERGENIC EFFECTS” (priority 2005, published 2010).

Tests used:
[1] = topical application
[2] = mice, bee venom intradermal; test substance by intradermal injection or topical application

Row | Molecule | reducing the itch associated with mosquito and black fly bites [1] | inhibition of lesion development [2]
1 | pancreatin | effective | –
2 | subtilisin | effective | –
3 | papain (protein, UniProt P00784 134-345, looked up, proteolytic enzyme, commonly in the form of meat tenderizer) Papain: IPEYVDWRQKGAVTPVKNQGSCGSCWAFSAVVTIEGIIKIRTGNLNEYSEQELLDCDRRSYGCNGGYPWSALQLVAQYGIHYRNTYPYEGVQRYCRSREKGPYAAKTDGVRQVQPYNEGALLYSIANQPVSVVLEAAGKDFQLYRGGIFVGPCGNKVDHAVAAVGYGPNYILIKNSWGTGWGENGYIRIKRGTGNSYGVCGLYTSSFYPVKN | effective | no marked inhibition
